The results in this text go back to the supplement of paper PMC6045584.

± gives the standard deviation of the averaged measurements.

Compound in experiment [1]: CC(=O)O[C@H]1C(=O)[C@@]2(C)[C@H]([C@H](OC(=O)c3ccccc3)[C@]3(O)C[C@H](OC(=O)[C@H](O)[C@@H](NC(=O)c4ccccc4)c4ccccc4)C(C)=C1C3(C)C)[C@]1(OC(C)=O)CO[C@@H]1C[C@@H]2O [PACLITAXEL]
The experiment in a line: surviving fraction relative to DMSO-only wells; higher = less growth inhibition. Conditions: exposure time: 5 days. The essentials: (§1)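 Each tumour cell line was screened three times, and only lines with replicate Pearson r >0.7 and median Z' >0.3 were kept. Cells in log phase were seeded at 250–500 per well in 384-well plates, left 24 hours, then exposed continuously for five days to inhibitors at 0.5, 1, 5, 10, 50, 100, 500 and 1000 nM. Viability was read as CellTiter-Glo luminescence, with surviving fraction normalised to the median of DMSO-only wells.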

Compound in experiment [2]: Cc1ccc(-c2cc(C(F)(F)F)nn2-c2ccc(S(N)(=O)=O)cc2)cc1 [CELECOXIB]
The experiment is described as above. Conditions: exposure time: 5 days. The essentials:
as §1

As to HMT3552 BREAST, the surviving fraction in experiment [1] (0.5 nM) was found to be 0.568; in experiment [1] (1 nM), 0.133; in experiment [1] (5 nM), 0.09; in experiment [1] (10 nM) it was 0.091; in experiment [1] (50 nM), 0.106; in experiment [1] (100 nM), 0.099. Further, the surviving fraction in experiment [1] (500 nM) came to 0.1; in experiment [1] (1000 nM), 0.094; in experiment [2] (0.5 nM), 1.07 ± 0.057; in experiment [2] (1 nM), 1.07 ± 0.07; in experiment [2] (5 nM), 1.09 ± 0.026; in experiment [2] (10 nM) it was 1.11 ± 0.038. Further, the surviving fraction in experiment [2] (50 nM) was 1.16 ± 0.019; in experiment [2] (100 nM) it was 1.18 ± 0.062; in experiment [2] (500 nM), 1.19 ± 0.078; in experiment [2] (1000 nM), 1.27 ± 0.041.
For LM7 BONE, the surviving fraction in experiment [1] (0.5 nM) turned out to be 0.951 ± 0.061; in experiment [1] (1 nM) it was 0.825 ± 0.034; in experiment [1] (5 nM), 0.123 ± 0.019; in experiment [1] (10 nM), 0.092 ± 0.003; in experiment [1] (50 nM) it was 0.0847 ± 0.0068; in experiment [1] (100 nM), 0.075 ± 0.0044. In addition, the surviving fraction was determined as 0.0723 ± 0.0015 in experiment [1] (500 nM); 0.0703 ± 0.004 in experiment [1] (1000 nM); 0.979 ± 0.059 in experiment [2] (0.5 nM); 0.963 ± 0.023 in experiment [2] (1 nM); 1.06 ± 0.05 in experiment [2] (5 nM); 1.1 ± 0.086 in experiment [2] (10 nM). In addition, the surviving fraction in experiment [2] (50 nM) is 1.04 ± 0.038; in experiment [2] (100 nM), 1.04 ± 0.023; in experiment [2] (500 nM), 0.944 ± 0.044; in experiment [2] (1000 nM), 1.02 ± 0.068.
Regarding VCAP PROSTATE, the surviving fraction in experiment [1] (0.5 nM) was determined as 0.846 ± 0.11; in experiment [1] (1 nM) it was 0.666 ± 0.052; in experiment [1] (5 nM), 0.179 ± 0.038; in experiment [1] (10 nM) it was 0.0997 ± 0.0076; in experiment [1] (50 nM) it was 0.077 ± 0.015; in experiment [1] (100 nM), 0.0693 ± 0.0068. In addition, the surviving fraction in experiment [1] (500 nM) was 0.0677 ± 0.022; in experiment [1] (1000 nM), 0.0697 ± 0.0086; in experiment [2] (0.5 nM), 1.07 ± 0.068; in experiment [2] (1 nM), 1.08 ± 0.17; in experiment [2] (5 nM) it was 1.06 ± 0.067; in experiment [2] (10 nM), 1.14 ± 0.1. Besides, the surviving fraction in experiment [2] (50 nM) turned out to be 1.13 ± 0.018; in experiment [2] (100 nM), 1.12 ± 0.072; in experiment [2] (500 nM), 1.07 ± 0.029; in experiment [2] (1000 nM), 1.05 ± 0.11.
Consider HOS BONE, for which the surviving fraction in experiment [1] (0.5 nM) came to 1.01 ± 0.011; in experiment [1] (1 nM), 0.95 ± 0.01; in experiment [1] (5 nM), 0.085 ± 0.003; in experiment [1] (10 nM) it was 0.0507 ± 0.004; in experiment [1] (50 nM), 0.0357 ± 0.004; in experiment [1] (100 nM) it was 0.025 ± 0.001. Besides, the surviving fraction turned out to be 0.0223 ± 0.0011 in experiment [1] (500 nM); 0.0217 ± 0.0015 in experiment [1] (1000 nM); 1 ± 0.013 in experiment [2] (0.5 nM); 1.028 ± 0.0093 in experiment [2] (1 nM); 1.02 ± 0.012 in experiment [2] (5 nM); 1.018 ± 0.0023 in experiment [2] (10 nM). Moreover, the surviving fraction in experiment [2] (50 nM) amounted to 1.06 ± 0.028; in experiment [2] (100 nM), 1.08 ± 0.031; in experiment [2] (500 nM) it was 1.06 ± 0.022; in experiment [2] (1000 nM), 1.024 ± 0.007.
Regarding HS57T BREAST, the surviving fraction in experiment [1] (0.5 nM) amounted to 0.773 ± 0.045; in experiment [1] (1 nM), 0.478 ± 0.058; in experiment [1] (5 nM), 0.0727 ± 0.0025; in experiment [1] (10 nM), 0.0563 ± 0.0021; in experiment [1] (50 nM) it was 0.0457 ± 0.0042; in experiment [1] (100 nM) it was 0.0463 ± 0.0065. For the same test system, the surviving fraction turned out to be 0.0353 ± 0.0021 in experiment [1] (500 nM); 0.0403 ± 0.007 in experiment [1] (1000 nM); 1.028 ± 0.0046 in experiment [2] (0.5 nM); 1.04 ± 0.052 in experiment [2] (1 nM); 1.06 ± 0.022 in experiment [2] (5 nM); 1.09 ± 0.08 in experiment [2] (10 nM). In addition, the surviving fraction in experiment [2] (50 nM) was 1.04 ± 0.06; in experiment [2] (100 nM), 1.09 ± 0.04; in experiment [2] (500 nM), 1.02 ± 0.055; in experiment [2] (1000 nM), 0.867 ± 0.021.
